Reference: the NIST ThermoML archive (doi:10.1016/j.jct.2016.08.022)

How the values were obtained:
[1] = for molar entropy: 101.33 kPa, Small (less than 1 g) adiabatic calorimetry
[2] = Molar enthalpy of transition or fusion; conditions: Crystal 2; Adiabatic calorimetry

CCC(=O)O[C@]1(C(=O)COC(C)=O)CC[C@H]2[C@@H]3C[C@H](C)C4=CC(=O)C=C[C@]4(C)[C@H]3[C@@H](O)C[C@@]21C [Methylprednisolone aceponate]
[1]
Conditions	molar entropy [J/K/mol]
5 K, Crystal 2	0.628
10 K, Crystal 2	4.44
15 K, Crystal 2	10.8
20 K, Crystal 2	18.5
25 K, Crystal 2	27.49
30 K, Crystal 2	37.43
40 K, Crystal 2	58.9
50 K, Crystal 2	81.57
60 K, Crystal 2	105
70 K, Crystal 2	128.9
80 K, Crystal 2	152.9
90 K, Crystal 2	177.1
100 K, Crystal 2	201.3
110 K, Crystal 2	225.4
120 K, Crystal 2	249.3
130 K, Crystal 2	273.2
140 K, Crystal 1	296.3
150 K, Crystal 1	318.6
160 K, Crystal 1	340.7
170 K, Crystal 1	362.5
180 K, Crystal 1	384.1
190 K, Crystal 1	405.4
200 K, Crystal 1	426.6
210 K, Crystal 1	447.6
220 K, Crystal 1	468.5
230 K, Crystal 1	489.3
240 K, Crystal 1	509.9
250 K, Crystal 1	530.5
260 K, Crystal 1	551
270 K, Crystal 1	571.5
280 K, Crystal 1	591.8
290 K, Crystal 1	612.1
298.15 K, Crystal 1	628.6
300 K, Crystal 1	632.4
310 K, Crystal 1	652.6
320 K, Crystal 1	672.9
330 K, Crystal 1	693.1
340 K, Crystal 1	713.4
346 K, Crystal 1	725.6

Conditions	Triple point temperature [K]
[1], Crystal 2, Adiabatic calorimetry	131

Conditions	Molar enthalpy of transition or fusion [kJ/mol]
[2]	0.22
